Experimental data from ChEMBL document CHEMBL5113427, “Bioevaluation of a dual PI3K/HDAC inhibitor for the treatment of diffuse large B-cell lymphoma” (Bioorg Med Chem Lett, 2022).
The source made the active and inactive calls. The calls are words filed in the database; no cut-off is given here.

How the values were obtained:
[1] = system: DOHH-2; assay: Antiproliferative activity against human DOHH-2 cells measured after 4 days by Cell Titer Glo Luminescent Cell Viability Assay; type: functional, cell-based; conditions: DOHH-2, 96 h
[2] = Antiproliferative activity against human HBL1 cells measured after 4 days by Cell Titer Glo Luminescent Cell Viability Assay; type: functional, cell-based; conditions: HBL1, 96 h
[3] = system: KARPAS-422; assay: Antiproliferative activity against human KARPAS-422 cells measured after 4 days by Cell Titer Glo Luminescent Cell Viability Assay; type: functional, cell-based; conditions: KARPAS-422, 96 h
[4] = system: OCI-Ly3; assay: Antiproliferative activity against human OCILY3 cells measured after 4 days by Cell Titer Glo Luminescent Cell Viability Assay; type: functional, cell-based; conditions: OCI-Ly3, 96 h
[5] = system: OCI-Ly7; assay: Antiproliferative activity against human OCILY7 cells measured after 4 days by Cell Titer Glo Luminescent Cell Viability Assay; type: functional, cell-based; conditions: OCI-Ly7, 96 h
[6] = system: OCI-LY19; assay: Antiproliferative activity against human OCILY19 cells measured after 4 days by Cell Titer Glo Luminescent Cell Viability Assay; type: functional, cell-based; conditions: OCI-LY19, 96 h
[7] = system: Pfeiffer; assay: Antiproliferative activity against human Pfeiffer cells measured after 4 days by Cell Titer Glo Luminescent Cell Viability Assay; type: functional, cell-based; conditions: 96 h
[8] = system: SUD4; assay: Antiproliferative activity against human SU-DHL-4 cells measured after 4 days by Cell Titer Glo Luminescent Cell Viability Assay; type: functional, cell-based; conditions: SU-DHL-4, 96 h
[9] = system: SU-DHL-5; assay: Antiproliferative activity against human SU-DHL-5 cells measured after 4 days by Cell Titer Glo Luminescent Cell Viability Assay; type: functional, cell-based; conditions: SU-DHL-5, 96 h
[10] = system: SU-DHL-6; assay: Antiproliferative activity against human SU-DHL-6 cells measured after 4 days by Cell Titer Glo Luminescent Cell Viability Assay; type: functional, cell-based; conditions: SU-DHL-6, 96 h
[11] = system: SU-DHL-8; assay: Antiproliferative activity against human SU-DHL-8 cells measured after 4 days by Cell Titer Glo Luminescent Cell Viability Assay; type: functional, cell-based; conditions: SU-DHL-8, 96 h
[12] = system: SU-DHL10; assay: Antiproliferative activity against human SU-DHL-10 cells measured after 4 days by Cell Titer Glo Luminescent Cell Viability Assay; type: functional, cell-based; conditions: SU-DHL10, 96 h
[13] = system: Toledo; assay: Antiproliferative activity against human Toledo cells measured after 4 days by Cell Titer Glo Luminescent Cell Viability Assay; type: functional, cell-based; conditions: 96 h
[14] = system: U2932; assay: Antiproliferative activity against human U2932 cells measured after 4 days by Cell Titer Glo Luminescent Cell Viability Assay; type: functional, cell-based; conditions: U2932, 96 h
[15] = system: WSUDLCL2; assay: Antiproliferative activity against human WSUDLCL2 cells measured after 4 days by Cell Titer Glo Luminescent Cell Viability Assay; type: functional, cell-based; conditions: WSUDLCL2, 96 h
[16] = system: WSU-NHL; assay: Antiproliferative activity against human WSU-NHL cells measured after 4 days by Cell Titer Glo Luminescent Cell Viability Assay; type: functional, cell-based; conditions: 96 h
[17] = system: DOHH-2; assay: Induction of cell cycle arrest in human DOHH-2 cells assessed as accumulation at S phase at 0.01 to 1 uM measured by flow cytometry analysis; type: functional, cell-based; conditions: dose 0.01-1 µM, DDE = dose-dependent effect
[18] = system: DOHH-2; assay: Induction of apoptosis in human DOHH-2 cells at 0.01 to 1 uM measured by flow cytometry analysis; type: functional, cell-based; conditions: dose 0.01-1 µM, DDE = dose-dependent effect
[19] = system: OCI-Ly3; assay: Induction of apoptosis in human OCILY3 cells at 0.01 to 1 uM measured by flow cytometry analysis; type: functional, cell-based; conditions: dose 0.01-1 µM, DDE = dose-dependent effect
[20] = system: DOHH-2; assay: Induction of apoptosis in human DOHH-2 cells assessed as upregulation of cleaved-PARP at 0.01 to 1 uM measured by Western blot analysis; type: functional, cell-based; conditions: dose 0.01-1 µM
[21] = system: DOHH-2; assay: Induction of apoptosis in human DOHH-2 cells assessed as upregulation of cleaved-caspase3 at 0.01 to 1 uM measured by Western blot analysis; type: functional, cell-based; conditions: dose 0.01-1 µM
[22] = system: OCI-Ly3; assay: Induction of apoptosis in human OCILY3 cells assessed as upregulation of cleaved-PARP at 0.01 to 1 uM measured by Western blot analysis; type: functional, cell-based; conditions: dose 0.01-1 µM
[23] = system: OCI-Ly3; assay: Induction of apoptosis in human OCILY3 cells assessed as upregulation of cleaved-caspase3 at 0.01 to 1 uM measured by Western blot analysis; type: functional, cell-based; conditions: dose 0.01-1 µM
[24] = target: Phosphatidylinositol 4,5-bisphosphate 3-kinase catalytic subunit alpha isoform (Homo sapiens) (UniProt P42336); assay: Inhibition of PI3Kalpha in human DOHH-2 cells assessed as decrease in AKT phosphorylation at 0.01 to 1 uM measured by western blot analysis; type: cell-based; conditions: dose 0.01-1 µM
Chain of Phosphatidylinositol 4,5-bisphosphate 3-kinase catalytic subunit alpha isoform (Homo sapiens) (P42336 whole entry, canonical isoform): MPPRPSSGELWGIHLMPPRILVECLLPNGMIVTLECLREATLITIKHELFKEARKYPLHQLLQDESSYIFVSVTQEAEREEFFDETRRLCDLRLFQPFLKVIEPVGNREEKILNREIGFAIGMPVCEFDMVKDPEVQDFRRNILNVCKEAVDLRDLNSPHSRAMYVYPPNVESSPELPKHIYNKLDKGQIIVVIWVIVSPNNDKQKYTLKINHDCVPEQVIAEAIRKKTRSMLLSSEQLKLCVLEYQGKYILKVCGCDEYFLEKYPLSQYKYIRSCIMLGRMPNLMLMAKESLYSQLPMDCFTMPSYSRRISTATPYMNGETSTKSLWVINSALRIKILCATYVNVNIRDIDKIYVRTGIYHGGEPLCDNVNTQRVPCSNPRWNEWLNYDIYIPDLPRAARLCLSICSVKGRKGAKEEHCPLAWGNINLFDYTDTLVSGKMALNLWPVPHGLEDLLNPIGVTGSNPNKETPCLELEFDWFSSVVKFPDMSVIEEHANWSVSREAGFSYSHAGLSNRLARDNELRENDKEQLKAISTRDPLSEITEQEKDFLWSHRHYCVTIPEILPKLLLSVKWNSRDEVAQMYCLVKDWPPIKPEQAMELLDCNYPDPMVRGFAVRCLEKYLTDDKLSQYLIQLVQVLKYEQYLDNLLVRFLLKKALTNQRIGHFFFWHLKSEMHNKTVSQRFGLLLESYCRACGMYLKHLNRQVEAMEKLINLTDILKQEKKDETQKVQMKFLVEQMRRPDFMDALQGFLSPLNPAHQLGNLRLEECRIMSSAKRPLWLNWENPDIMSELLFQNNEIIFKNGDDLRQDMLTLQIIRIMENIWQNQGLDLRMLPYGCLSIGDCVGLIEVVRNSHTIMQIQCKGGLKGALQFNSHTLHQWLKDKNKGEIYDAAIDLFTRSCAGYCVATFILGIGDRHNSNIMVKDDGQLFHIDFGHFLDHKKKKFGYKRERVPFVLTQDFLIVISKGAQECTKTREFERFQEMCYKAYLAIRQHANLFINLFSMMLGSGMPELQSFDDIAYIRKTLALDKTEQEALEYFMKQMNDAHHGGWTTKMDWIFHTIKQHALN

[25] = target: Phosphatidylinositol 4,5-bisphosphate 3-kinase catalytic subunit alpha isoform (Homo sapiens) (UniProt P42336); assay: Inhibition of PI3Kalpha in human OCILY3 cells assessed as decrease in AKT phosphorylation at Ser473 residue at 0.01 to 1 uM measured by western blot analysis; type: cell-based; conditions: dose 0.01-1 µM
[26] = target: Phosphatidylinositol 4,5-bisphosphate 3-kinase catalytic subunit alpha isoform (Homo sapiens) (UniProt P42336); assay: Inhibition of PI3Kalpha in human OCILY3 cells assessed as decrease in AKT phosphorylation at Thr308 residue at 0.01 to 1 uM measured by western blot analysis; type: cell-based; conditions: dose 0.01-1 µM
[27] = target: T1, Histone deacetylase (Homo sapiens) (UniProt Q13547+O15379+Q9UBN7+Q92769+Q9UQL6+Q8WUI4+Q9BY41+Q96DB2+P56524+Q9UKV0+Q969S8); assay: Inhibition of HDAC in human DOHH-2 cells assessed as Down-regulation of STAT3 phosphorylation at Y705 residue at 0.01 to 1 uM measured by Western blot analysis; type: cell-based; conditions: dose 0.01-1 µM
[28] = target: T1, Histone deacetylase (Homo sapiens); assay: Inhibition of HDAC in human OCILY3 cells assessed as Down-regulation of STAT3 phosphorylation at Y705 residue at 0.01 to 1 uM measured by Western blot analysis; type: cell-based; conditions: dose 0.01-1 µM
[29] = target: T1, Histone deacetylase (Homo sapiens); assay: Inhibition of HDAC in human DOHH-2 cells assessed as effect on pS6 levels at 0.01 to 1 uM measured by Western blot analysis; type: cell-based; conditions: dose 0.01-1 µM
[30] = target: T1, Histone deacetylase (Homo sapiens); assay: Inhibition of HDAC in human OCILY3 cells assessed as effect on pS6 levels at 0.01 to 1 uM measured by Western blot analysis; type: cell-based; conditions: dose 0.01-1 µM
[31] = target: T1, Histone deacetylase (Homo sapiens); assay: Inhibition of HDAC in human DOHH-2 cells assessed as increase in Ac-H3 levels at 0.01 to 1 uM measured by Western blot analysis; type: cell-based; conditions: dose 0.01-1 µM
[32] = target: T1, Histone deacetylase (Homo sapiens); assay: Inhibition of HDAC in human OCILY3 cells assessed as increase in Ac-H3 levels at 0.01 to 1 uM measured by Western blot analysis; type: cell-based; conditions: dose 0.01-1 µM
[33] = target: T1, Histone deacetylase (Homo sapiens); assay: Inhibition of HDAC in human DOHH-2 cells assessed as increase in Ac-p53 levels at 0.01 to 1 uM measured by Western blot analysis; type: cell-based; conditions: dose 0.01-1 µM
[34] = target: T1, Histone deacetylase (Homo sapiens); assay: Inhibition of HDAC in human OCILY3 cells assessed as increase in Ac-p53 levels at 0.01 to 1 uM measured by Western blot analysis; type: cell-based; conditions: dose 0.01-1 µM
[35] = target: Phosphatidylinositol 4,5-bisphosphate 3-kinase catalytic subunit alpha isoform (Homo sapiens) (UniProt P42336); assay: Inhibition of PI3Kalpha in human DOHH-2 cells assessed as decrease in AKT phosphorylation at 0.5 to 1 hrs measured by western blot analysis; type: cell-based; conditions: time 0.5-1 hrs
[36] = target: Phosphatidylinositol 4,5-bisphosphate 3-kinase catalytic subunit alpha isoform (Homo sapiens) (UniProt P42336); assay: Inhibition of PI3Kalpha in human OCILY3 cells assessed as decrease in AKT phosphorylation at 0.5 to 1 hrs measured by western blot analysis; type: cell-based; conditions: time 0.5-1 hrs
[37] = target: T1, Histone deacetylase (Homo sapiens); assay: Inhibition of HDAC in human DOHH-2 cells assessed as down-regulation of STAT3 phosphorylation at Y705 residue at 0.5 to 12 hrs measured by Western blot analysis; type: cell-based; conditions: time 0.5-12 hrs
[38] = target: T1, Histone deacetylase (Homo sapiens); assay: Inhibition of HDAC in human OCILY3 cells assessed as down-regulation of STAT3 phosphorylation at Y705 residue at 0.5 to 12 hrs measured by Western blot analysis; type: cell-based; conditions: time 0.5-12 hrs
[39] = target: T1, Histone deacetylase (Homo sapiens); assay: Inhibition of HDAC in human DOHH-2 cells assessed as decrease in p-S6 level at 0.5 to 12 hrs measured by Western blot analysis; type: cell-based; conditions: time 0.5-12 hrs
[40] = target: T1, Histone deacetylase (Homo sapiens); assay: Inhibition of HDAC in human OCILY3 cells assessed as decrease in p-S6 level at 0.5 to 12 hrs measured by Western blot analysis; type: cell-based; conditions: time 0.5-12 hrs
[41] = target: T1, Histone deacetylase (Homo sapiens); assay: Inhibition of HDAC in human DOHH-2 cells assessed as […] level at 0.5 to 12 hrs measured by Western blot analysis; type: cell-based; conditions: time 0.5-12 hrs
[42] = target: T1, Histone deacetylase (Homo sapiens); assay: Inhibition of HDAC in human OCILY3 cells assessed as […] level at 0.5 to 12 hrs measured by Western blot analysis; type: cell-based; conditions: time 0.5-12 hrs
[43] = system: SUD4; assay: Antitumour activity against CM-Dil labeled human SU-DHL-4 cells xenografted in zebrafish embryo assessed as decrease in tumor growth at 3 uM measured by fluorescence based assay; type: functional, cell-based
[44] = system: DOHH-2; assay: Induction of cell cycle arrest in human DOHH-2 cells assessed as accumulation at S phase measured by flow cytometry analysis; type: functional, cell-based
[45] = system: DOHH-2; assay: Induction of cell cycle arrest in human DOHH-2 cells assessed as accumulation at G2/M phase measured by flow cytometry analysis; type: functional, cell-based
[46] = system: DOHH-2; assay: Induction of apoptosis in human DOHH-2 cells measured by flow cytometry analysis; type: functional, cell-based
[47] = system: OCI-Ly3; assay: Induction of apoptosis in human OCILY3 cells measured by flow cytometry analysis; type: functional, cell-based
[48] = target: T1, Histone deacetylase (Homo sapiens); assay: Inhibition of HDAC in human DOHH-2 cells assessed as Down-regulation of STAT3 phosphorylation at Y705 residue at 10 uM measured by Western blot analysis; type: cell-based
[49] = target: T1, Histone deacetylase (Homo sapiens); assay: Inhibition of HDAC in human OCILY3 cells assessed as Down-regulation of STAT3 phosphorylation at Y705 residue at 10 uM measured by Western blot analysis; type: cell-based
[50] = target: T1, Histone deacetylase (Homo sapiens); assay: Inhibition of HDAC in human DOHH-2 cells assessed as effect on pS6 levels at 10 uM measured by Western blot analysis; type: cell-based
[51] = target: T1, Histone deacetylase (Homo sapiens); assay: Inhibition of HDAC in human OCILY3 cells assessed as effect on pS6 levels at 10 uM measured by Western blot analysis; type: cell-based
[52] = system: DOHH-2; assay: Induction of cell cycle arrest in human DOHH-2 cells assessed as accumulation at G2/M phase in presence of pictilisib measured by flow cytometry analysis; type: functional, cell-based

For `COc1ccc(-c2cc(OCCN(C)c3ncc(C(=O)NO)cn3)c3ncnc(C)c3c2)cn1`, the IC50 [1] was 7.7 nM, the IC50 [2] was 7.9 nM and the IC50 [3] was 21 nM. It also gave an IC50 [4] of 3.6 nM, an IC50 [5] of 5.6 nM and an IC50 [6] of 19.2 nM. The IC50 [7] was 5.3 nM, the IC50 [8] was 7.6 nM and the IC50 [9] was 3.6 nM. For the same molecule, the IC50 [10] was 6.5 nM, the IC50 [11] was 6.4 nM and the IC50 [12] was 9.7 nM. The IC50 [13] was 5.6 nM, the IC50 [14] was 17.7 nM and the IC50 [15] was 16 nM. For the same molecule, the IC50 [16] was 5.2 nM, the Activity [17] was “Dde” and the Activity [18] was “Dde”. The Activity [19] was “Dde”, the Activity [20] was “Active” and the Activity [21] was “Active”. The Activity [22] was “Active”, the Activity [23] was “Active” and the inhibition [24] was “Active”. For the same molecule, the inhibition [25] was “Active”, the inhibition [26] was “Active” and the inhibition [27] was “Active”. For the same molecule, the inhibition [28] was “Active”, the inhibition [29] was “Active” and the inhibition [30] was “Active”. The inhibition [31] was “Active”, the inhibition [32] was “Active” and the inhibition [33] was “Active”. For the same molecule, the inhibition [34] was “Active”, the inhibition [35] was “Active” and the inhibition [36] was “Active”. The inhibition [37] was “Active”, the inhibition [38] was “Active” and the inhibition [39] was “Active”. The inhibition [40] was “Active”, the inhibition [41] was “Active” and the inhibition [42] was “Active”. For the same molecule, the Activity [43] was “Active”.

With `CS(=O)(=O)N1CCN(Cc2cc3nc(-c4cccc5[nH]ncc45)nc(N4CCOCC4)c3s2)CC1` the Activity [44] was “Active”, the Activity [45] was “Active” and the Activity [46] was “Active”. The Activity [47] was “Active”, the inhibition [48] was “Active” and the inhibition [49] was “Active”. The inhibition [50] was “Active” and the inhibition [51] was “Active”.

For `O=C(CCCCCCC(=O)Nc1ccccc1)NO`, the Activity [44] was “Active”, the Activity [45] was “Active” and the Activity [52] was “Active”. For the same molecule, the Activity [46] was “Active” and the Activity [47] was “Active”.
